In brackets after ≈: the same amount, converted by molar mass. Where a SMILES comes first, the peptide text is derived from it. [ ]: non-standard residue; d: D form.
Assays:
[1] = test system: Staphylococcus aureus (MSSA); experiment: microbe, parasite or virus in culture
Description: (§1) E. coli K-12 mutant E2146 was kindly provided by the Institut Pasteur of Paris. […] It is resistant to specific antibiotics, i.e. ampicillin, chloramphenicol, and kanamycin.
(§2) MIC was determined by broth microdilution. […] Experiments were performed with biological replicates.
(§3) To this aim, they determined the Fractional Inhibitory Concentration Index (FICI) of the combination between D-CTL and each antibiotic of reference.

[2] = test system: Escherichia coli Amp^R Kan^RChlo^R; conditions: Escherichia coli Amp^R Kan^R Chlo^R (multi-resistant), 24 hours incubation
Description: as §1, §2, §3

E. coli (ATCC 25922) = experiment: Resistance acquisition assay; assay type: cell-based, Escherichia coli; conditions: E. coli wild type cultured at sub-MIC (½ MIC) concentrations, day 28
Description: FIG. 1: Resistance acquisition assay of E. coli in the presence of D-CTL compared to ampicillin and cefotaxim. Bacteria were cultured in the presence of ½ MIC of the antibacterial agent for […]. The fold change in MIC was evaluated at the indicated days. The graph is representative of two experiments done independently.
E. coli (ATCC® 25922™ ) strain was sequentially passaged every day in the presence of the different antibacterial compounds: D-CTL, ampicillin or cefotaxime at ½ MIC during 28 days. The changes in the MICs were determined as previously described by broth microdilution at the indicated times.

Parvimonas micra = experiment: microbe, parasite or virus in culture
Description: as §1, §2, §3

Enterococcus faecalis = assay type: cell-based; conditions: for bacterial growth inhibition of E. faecalis: peptides at 200 μg/mL
Description: Enterococcus faecalis (CCM 2541) was obtained from the Czechoslovac Collection of Microorganisms (Czech Republic) Bacteria were cultured in Anaerobe Basal Broth (Oxoid, France) at 37° C. in anaerobic conditions. Candida albicans (ATCC© 10231™) was cultured in Sabouraud medium (BD, France) supplemented with tetracycline (10 μg/mL) and cefotaxime (10 μg/mL).
An overnight culture of each pathogen was diluted (OD600 nm=0.001) and incubated at 37° C. in 96-plates in the presence of different concentrations of antimicrobial agents. When testing Ca(OH)2, the pH of the solution was measured with by pH meter. (CyberScan pH 510©, Eutech, France). After 24 h incubation, the OD620 nm was evaluated with a spectrophotometer (Multikan EX, ThermoScientific, France). Each assay was done at least in triplicate. For each set of assay, the standard deviation was determined.

Escherichia coli = experiment: microbe, parasite or virus in culture; conditions: 24 h
Description: as §1, §2

[3] = test system: Staphylococcus aureus (MRSA); experiment: microbe, parasite or virus in culture; conditions: 24 h
Description: as §1, §2, §3

Fusobacterium nucleatum = conditions: 24 h
Description: as §1, §2, §3

Prevotella intermedia = conditions: 24 h
Description: as §1, §2, §3

[4] = 19 μg peptide in 100 μL supernatant, 37° C., 24 h, HPLC
Excerpt: Absence of growth was interpreted as lack of viable microorganism.
Absorbance was monitored at 214 nm and the solvent system consisted of 0.1% (v/v) TFA in water (solvent A) and 0.09% (v/v) TFA in 70% (v/v) acetonitrile-water (solvent B).

[5] = Peptide stability assay towards bacterial virulence factors (supernatants) using HPLC; assay type: in vitro ADME; conditions: 24 hours
Description: FIG. 5: Stability of D-CTL and L-CTL towards the virulence factors of different bacterial strains. […] Chromatograms 1 correspond to supernantant only, chromatograms 2 correspond to supernatant and peptide and chromatograms 3 corresponds to peptide only.
Bacteria were then centrifuged for lmin at 13000rpm and the supernatant filtered using a 0,2 μm Millex filter (Merck-Millipore) to remove any residual bacteria.

[6] = saliva from ten healthy volunteers, 24 hours
Description: Saliva from ten healthy volunteers was incubated with D-CTL or L-CTL for 24 hours and peptide stability was then assessed by LC-SRM. The analyses were performed on an Agilent 1100 Series HPLC system hyphenated to a QQQ-6490 triple quadrupole (Agilent Technologies). A total of 48 transitions (6 precursors) were monitored in an unscheduled mode within a total cycle time of 3 000 ms.
All samples were centrifuged at 14 000 g during 5 min at +4° C. and then diluted 3 times in water with 0.1% (v/v) HCOOH. For each sample, 2 μL were injected on the LC-SRM system. All separations were carried out on Agilent 1100 Series HPLC system (Agilent Technologies). For each analysis, the sample was loaded into a trapping column ZORBAX 300SB-C18 MicroBore Guard 5 gm, 1.0×17 mm (Agilent Technologies) at 50 μL/min with aqueous solution containing 0.1% (v/v) HCOOH and 2% CH3CN. After 3 min trapping, the column was put on-line with a ZORBAX 300SB-C18 3.5 μm, 0.3×150 mm column (Agilent Technologies). […]
For LC-SRM assay, each peptide was targeted with either an oxidized or non-oxidized state [[sequence]]. […] For each of the 6 precursors, 8 transitions were monitored (48 transitions in total) on a QQQ-6490 triple quadrupole mass spectrometer (Agilent technologies) in unscheduled mode and within a cycle time of 3 000 s. […] The reference value was calculated using the equation given by the supplier. […]

[7] = 300 μg/mL, 37° C., 24 h, HPLC
Description: (§4) The samples were analyzed by HPLC (Dionex, Ultimate 3000, CA USA) using a Nucleosil reverse-phase 300-5C18-colum (4,6×250 mm; particle size: 5 μm; porosity, 300 Å) (Macherey Nagel, France). Two solvents used were: 0.1% (v/v) TFA in water (Solvent A) and 0.09% (v/v) TFA in 70% (v/v) acetonitrile-water (solvent B). Absorbance was measured at 214 nm (A214 nm). The flow rate for elution was 0,7 mL/min with a gradient of solvent B as indicated on the chromatograms.

[8] = Ca(OH)2 0,85 g/L pH 8,5, ½ MIC of D-CTL, HPLC
Description: The samples were then analyzed by HPLC. Chromatogram 1 corresponds to D-CTL, chromatogram 2 corresponds to D-CTL diluted in a saturated solution of Ca(OH)2 (pH 9). Absorbance is expressed in Unity of Milli-Absorbance (UmA) depending on the time in minutes (min).
Regarding the stability of D-CTL in Ca(OH)2, the peptide was incubated in a buffered Ca(OH)2 solution at 37° C. for 24 h. The pH of the Ca(OH)2 solution was buffered at the same pH than the one determined during the broth dilution assays. As negative controls, D-CTL in water was also incubated at 37° C. for 24 h.
as §4

Candida albicans = experiment: microbe, parasite or virus in culture; assay type: cell-based
Description: Candida albicans (ATCC© 10231™ distributed by LGC Standards, Molsheim, France) was cultured in Sabouraud medium (Sigma-Aldrich) supplemented with tetracycline (10 μg/mL) and cefotaxime (10 μg/mL) at 37° C. for 24 h. Candida albicans (OD600 nm=0,001) were plated in 96-well plates and treated either with different concentrations of the peptides of interest, and/or with different concentrations of voriconazole (VCZ) (Sigma-Aldrich). As a positive control, cells were treated with 10 μg/mL VCZ. After 24 h incubation, yeast growth was assessed by optical density OD600 nm using a spectrophotometer (Multiscan EX, Shanghai, China).
The MFC is defined as the lowest concentration of peptide able to inhibit 100% of yeasts, and determined using a modified Gompertz model as described in Lambert et Pearson (Lambert and Pearson 2000, J Appl Microbiol, 88(5): 784-790).
The efficiency of the combination D-CTL/VCZ was determined by the calculation of the Fractional inhibitory concentration (FIC) index according to the following formula: FICI=FICD-CTL+FICVCZ. According to EUCAST (European Committee on Antimicrobial Suscpetibility Testing), the effect of the combination is synergistic if FICI≤0,5, additive if 0,5<FICI≤1, indifferent if 1<FICI<2, antagonistic if FICI≥2^40-41. • Results D-CTL Inhibits the Groth of C. albicans

Compound: COc1cccc(OC)c1C(=O)N[C@@H]1C(=O)N2[C@@H]1SC(C)(C)[C@@H]2C(=O)O [Methicillin]
- MIC ([1]; Staphylococcus aureus, MSSA, 24 h): 1.2 µg/mL

Compound: CO/N=C(\C(=O)N[C@@H]1C(=O)N2C(C(=O)O)=C(COC(C)=O)CS[C@H]12)c1csc(N)n1 [Cefotaxim]
- MIC [2]: 0.09 µg/mL
- change in MIC over the culture (E. coli (ATCC 25922)): 3 times the MIC

Compound: CC1(C)S[C@@H]2[C@H](NC(=O)[C@H](N)c3ccc(O)cc3)C(=O)N2[C@H]1C(=O)O [Amoxicillin]
- MIC (Parvimonas micra; 24 h): 0.45 µg/mL

Compound: RSMRLSFRARGYGFRGPGLQL [CAT]
- bacterial growth inhibition of E. faecalis (Enterococcus faecalis): no antimicrobial activity

Compound: NC[C@H]1O[C@H](O[C@H]2[C@H](O)[C@@H](O[C@H]3O[C@H](CO)[C@@H](O)[C@H](N)[C@H]3O)[C@H](N)C[C@@H]2N)[C@H](O)[C@@H](O)[C@@H]1O [Kanamycin]
- MIC (Escherichia coli; Escherichia coli): 21.6 µg/mL (≈ 44.6 µM)

Compound: CC1(C)S[C@@H]2[C@H](NC(=O)[C@H](N)c3ccccc3)C(=O)N2[C@H]1C(=O)O [Ampicillin]
- change in MIC over the culture (E. coli (ATCC 25922)): 3 times the MIC

Compound: CSCC[C@H](NC(=O)[C@H](CO)NC(=O)[C@@H](N)CCCNC(=N)N)C(=O)N[C@@H](CCCNC(=N)N)C(=O)N[C@@H](CC(C)C)C(=O)N[C@@H](CO)C(=O)N[C@@H](Cc1ccccc1)C(=O)N[C@@H](CCCNC(=N)N)C(=O)N[C@@H](C)C(=O)N[C@@H](CCCNC(=N)N)C(=O)NCC(=O)N[C@@H](Cc1ccc(O)cc1)C(=O)NCC(=O)N[C@@H](Cc1ccccc1)C(=O)N[C@@H](CCCNC(=N)N)C(=O)O [L-CTL] (H-RSMRLSFRARGYGFR-OH; N-terminus and C-terminus assumed)
- MIC [3]: 37 µg/mL
- MIC (Parvimonas micra; 24 hours incubation): 120 µg/mL
- MIC ([1]; 24 h): 40 µg/mL
- MIC (Fusobacterium nucleatum): 125.3 µg/mL
- MIC [2]: 150 µg/mL
- MIC (Prevotella intermedia): 148.6 µg/mL
- stability in the supernatant of Candida albicans [4]: degraded
- degradation by virulence factors ([5]; supernatant of E. coli multiresistant strain): degraded
- degradation by virulence factors ([5]; supernatant of E. coli wild type strain): degraded
- MIC (Escherichia coli): 75 µg/mL (≈ 40.3 µM)
- stability in saliva [6]: unlike L-CTL, D-CTL was stable

Compound: CSCC[C@@H](NC(=O)[C@@H](CO)NC(=O)[C@H](N)CCCNC(=N)N)C(=O)N[C@H](CCCNC(=N)N)C(=O)N[C@H](CC(C)C)C(=O)N[C@H](CO)C(=O)N[C@H](Cc1ccccc1)C(=O)N[C@H](CCCNC(=N)N)C(=O)N[C@H](C)C(=O)N[C@H](CCCNC(=N)N)C(=O)NCC(=O)N[C@H](Cc1ccc(O)cc1)C(=O)NCC(=O)N[C@H](Cc1ccccc1)C(=O)N[C@H](CCCNC(=N)N)C(=O)O [D-CTL] (H-[dR][dS][dM][dR][dL][dS][dF][dR][dA][dR]G[dY]G[dF][dR]-OH; N-terminus and C-terminus assumed)
- MIC (Parvimonas micra; 24 hours incubation): 23 µg/mL
- MIC ([1]; Staphylococcus aureus (MSSA), 24 hours incubation): 24 µg/mL
- MIC on E. faecalis (Enterococcus faecalis): 156 µg/mL (≈ 83.9 µM)
- MIC (Fusobacterium nucleatum): 22.4 µg/mL
- MIC [2]: 8.4 µg/mL
- MIC (Prevotella intermedia): 10 µg/mL
- stability in the supernatant of Candida albicans [4]: remains stable
- degradation in the supernatant of E. faecalis [7]: not degraded
- degradation in bacterial supernatants ([5]; all bacterial supernatants tested, 37° C.): not degraded
- MIC (Escherichia coli): 8 µg/mL (≈ 4.3 µM)
- stability in a buffered solution of Ca(OH)2 [8]: stable
- stability in saliva [6]: stable

Compound: CN[C@H](CC(C)C)C(=O)N[C@H]1C(=O)N[C@@H](CC(N)=O)C(=O)N[C@H]2C(=O)N[C@H]3C(=O)N[C@H](C(=O)N[C@H](C(=O)O)c4cc(O)cc(O)c4-c4cc3ccc4O)[C@H](O)c3ccc(c(Cl)c3)Oc3cc2cc(c3O[C@@H]2O[C@H](CO)[C@@H](O)[C@H](O)[C@H]2O[C@H]2C[C@](C)(N)[C@H](O)[C@H](C)O2)Oc2ccc(cc2Cl)[C@H]1O [Vancomycin]
- MIC ([3]; Staphylococcus aureus, MRSA): 0.8 µg/mL

Compound: RILSILRHQNLLKELQDLAL [CHR, bovine chromofungin bCgA47-70]
- bacterial growth inhibition of E. faecalis (Enterococcus faecalis): no antimicrobial activity

Compound: C[C@@H](c1ncncc1F)[C@](O)(Cn1cncn1)c1ccc(F)cc1F [VCZ, voriconazole]
- MFC (Candida albicans; Candida albicans, 24 h, modified Gompertz model, read-out: minimal fungicidal concentration (MFC)): 0.07 µg/mL
- FIC (Candida albicans; combination D-CTL/VCZ on Candida albicans): 0.25

Source: patent publication US20190375791A1, “NEW D-CONFIGURED CATESLYTIN PEPTIDE” (priority 2016, published 2019)
